Laboratory results reported in patent US20190175560A1, “MEBENDAZOLE CANCER THERAPIES AND METHODS OF USE” (Shepherd Therapeutics, Inc., priority 2017, published 2019).

Key:
Format in all cases: cell-based
[1] = test system: SK-UT-1 leiomyosarcoma cells; assay: Synergy of MBZ with chemotherapeutic agents (Chou-Talalay CI, Cell Titer Glo); conditions: in combination with MBZ, 72 hour incubation
Description: (§1) Cells were plated in triplicate and treated with a range of 5 concentrations of MBZ in combination with 5 concentrations of chemotherapeutic agents in a complete Latin square. Following a 72 hour incubation, cell viability was determined using Cell Titer Glo. The Combination index (CI) was determined based on the method described by Chou and Talalay (2010) with a CI value less than 0.9 indicating synergy.

[2] = test system: MSTO-211H mesothelioma cells; assay: as above; conditions: in combination with MBZ, 72 hour incubation
Description: (§2) For in vitro experiments, cells were plated in triplicate and treated with a range of concentrations of MBZ and relevant chemotherapeutic agents in a complete Latin square.
as §1

LO68 mesothelioma cells = assay: as above; conditions: in combination with MBZ, 72 hour incubation
Description: as §2, §1

JU77 mesothelioma cells = assay: as above; conditions: in combination with MBZ, 72 hour incubation
Description: as §2, §1

[3] = test system: H295R adrenocortical carcinoma cells; assay: as above; conditions: in combination with MBZ, 72 hour incubation
Description: (§3) For in vitro experiments, cells were plated in triplicate and treated with a range of concentrations of MBZ and relevant chemotherapeutic agents in a complete Latin square. Combination indexes (CI) were determined based on the method described by Chou and Talalay (Cancer Res. 2010 Jan. 15; 70(2):440-6. doi: 10.1158/0008-5472.CAN-09-1947. Epub 2010 Jan. 12).
as §1

[4] = test system: SW-1271 small cell lung carcinoma cells; assay: as above; conditions: in combination with MBZ, 72 hour incubation
Description: as §2, §1

[5] = test system: TOV-112D ovarian carcinoma cells; assay: as above; conditions: in combination with MBZ, 72 hour incubation
Description: as §2, §1

[6] = test system: Hs766t pancreatic carcinoma cells; assay: as above; conditions: in combination with MBZ, 72 hour incubation
Description: as §1

[7] = test system: COV362 ovarian carcinoma cells; assay: as above; conditions: in combination with MBZ, 72 hour incubation
Description: as §2
(§4) Cells were plated in triplicate and treated with a range of 5 concentrations of MBZ in combination with 5 concentrations of chemotherapeutic agents in a complete Latin square. Following a 72 hour incubation, cell viability was determined using Cell Titer Glo.

[8] = test system: CHP-212 neuroblastoma cells; assay: Synergy of MBZ or HA-PLGA-MBZ with chemotherapeutic agents (Chou-Talalay CI, Cell Titer Glo); conditions: in combination with MBZ; CHP-212; 72 hour incubation
Description: as §2, §4
(§5) In table 22 below, cells were plated in triplicate and treated with a range of 5 concentrations of MBZ or HA-PLGA-MBZ nanoparticles containing a molar equivalent of MBZ, and 5 concentrations of relevant chemotherapeutic agents in a complete Latin square. Combination indexes (CI) were determined based on the method described by Chou-Talalay with a CI value less than 0.9 indicating synergy. […] Numbers in parentheses represent the range of synergistic CI values for each cell line and drug combination.

[9] = test system: DMS-114 small cell lung carcinoma cells; assay: Synergy of MBZ with chemotherapeutic agents (Chou-Talalay CI, Cell Titer Glo); conditions: in combination with MBZ, 72 hour incubation
Description: as §3, §1

[10] = test system: SW13 adrenocortical carcinoma cells; assay: as above; conditions: in combination with MBZ, 72 hour incubation
Description: as §1

[11] = test system: CCC-5 cholangiocarcinoma cells; assay: as above; conditions: in combination with MBZ, 72 hour incubation
Description: as §2, §4

[12] = test system: SK-N-AS neuroblastoma cells; assay: as above; conditions: in combination with MBZ, 72 hour incubation
Description: as §1

[13] = test system: TFK-1 cholangiocarcinoma cells; assay: as above; conditions: in combination with MBZ, 72 hour incubation
Description: as §3, §1

[14] = test system: BxPC-3 pancreatic carcinoma cells; assay: as above; conditions: in combination with MBZ, 72 hour incubation
Description: as §2, §4

[15] = test system: STC-1 carcinoid tumor cell line; assay: as above; conditions: in combination with MBZ, 72 hour incubation
Description: as §2, §1

[16] = test system: SK-UT-1B leiomyosarcoma cells; assay: as above; conditions: in combination with MBZ, 72 hour incubation
Description: as §3, §1

[17] = test system: SK-LMS-1 leiomyosarcoma cells; assay: as above; conditions: in combination with MBZ, 72 hour incubation
Description: as §1

[18] = test system: HCT116 colorectal carcinoma cells; assay: as above; conditions: in combination with MBZ, 72 hour incubation
Description: as §2, §4

[19] = test system: SNU16 gastric carcinoma cells; assay: Synergy of MBZ or HA-PLGA-MBZ with chemotherapeutic agents (Chou-Talalay CI, Cell Titer Glo); conditions: in combination with MBZ; SNU16; 72 hour incubation
Description: as §2, §4, §5

[20] = test system: Colo-205 colorectal carcinoma cells; assay: Synergy of MBZ with chemotherapeutic agents (Chou-Talalay CI, Cell Titer Glo); conditions: in combination with MBZ, 72 hour incubation
Description: as §2, §4

[21] = test system: Flo-1 esophageal carcinoma cells; assay: as above; conditions: in combination with MBZ, 72 hour incubation
Description: as §2, §4

[22] = test system: Kato-III gastric carcinoma cells; assay: as above; conditions: in combination with MBZ, 72 hour incubation
Description: as §2, §4

[23] = test system: GIST-1 gastrointestinal stromal tumor cell line; assay: Synergy of MBZ with small molecule agents (Chou-Talalay CI, Cell Titer Glo); conditions: in combination with MBZ, 72 hour incubation
Description: as §3, §1

[24] = test system: OE-33 esophageal carcinoma cells; assay: Synergy of MBZ with chemotherapeutic agents (Chou-Talalay CI, Cell Titer Glo); conditions: in combination with MBZ, 72 hour incubation
Description: as §2, §4

[25] = test system: HepG2 hepatocellular carcinoma cells; assay: as above; conditions: in combination with MBZ, 72 hour incubation
Description: as §2, §4

[26] = test system: PC12 pheochromocytoma/paraganglioma cell line; assay: Synergy of MBZ or HA-PLGA-MBZ with chemotherapeutic agents (Chou-Talalay CI, Cell Titer Glo); conditions: in combination with MBZ; PC12; 72 hour incubation
Description: as §2, §4, §5

[27] = test system: HepG2-C3A hepatocellular carcinoma cells; assay: Synergy of MBZ with chemotherapeutic agents (Chou-Talalay CI, Cell Titer Glo); conditions: in combination with MBZ, 72 hour incubation
Description: as §2, §1

## O=P1(NCCCl)OCCCN1CCCl (stereo not drawn) [Ifosamide]
[1]
  CI range for the concentration pairings: 0.317-0.708

## CCC1=C[C@@H]2CN(C1)Cc1c([nH]c3ccccc13)[C@@](C(=O)OC)(c1cc3c(cc1OC)N(C)[C@H]1[C@@](O)(C(=O)OC)[C@H](OC(C)=O)[C@]4(CC)C=CCN5CC[C@]31[C@@H]54)C2 [Vinorelbine]
[2]
  CI range for the concentration pairings: 0.087-0.885
LO68 mesothelioma cells
  CI range for the concentration pairings: 0.445-0.872
JU77 mesothelioma cells
  CI range for the concentration pairings: 0.325-0.799

## N.N.[Cl][Pt][Cl] [Cisplatin]
[3]
  CI range for the concentration pairings: 0.544-0.771
[4]
  CI range for the concentration pairings: 0.275-0.763
[5]
  CI range for the concentration pairings: 0.497-0.860
[6]
  CI range for the concentration pairings: 0.658-0.847
[7]
  CI range for the concentration pairings: 0.578-0.878
[8]
  CI range for the concentration pairings: 0.653-0.896
[9]
  CI range for the concentration pairings: 0.223-0.837
[10]
  CI range for the concentration pairings: 0.410-0.883
[11]
  CI range for the concentration pairings: 0.121-0.716
[12]
  CI range for the concentration pairings: 0.141-0.746
[13]
  CI range for the concentration pairings: 0.405-0.877
[14]
  CI range for the concentration pairings: 0.469-0.762
[15]
  CI range for the concentration pairings: 0.441-0.785

## COc1cccc2c1C(=O)c1c(O)c3c(c(O)c1C2=O)C[C@@](O)(C(=O)CO)C[C@@H]3O[C@H]1C[C@H](N)[C@H](O)[C@H](C)O1 [Doxorubicin]
[1]
  synergy with MBZ (Yes/No): No
[16]
  CI range for the concentration pairings: 0.716-0.887
[17]
  CI range for the concentration pairings: 0.514-0.872
[3]
  synergy with MBZ (Yes/No): No
[2]
  CI range for the concentration pairings: 0.288-0.700
[8]
  CI range for the concentration pairings: 0.646-0.883
[10]
  CI range for the concentration pairings: 0.771-0.850
[12]
  CI range for the concentration pairings: 0.267-0.849
LO68 mesothelioma cells
  CI range for the concentration pairings: 0.433-0.875
[15]
  CI range for the concentration pairings: 0.419-0.829
JU77 mesothelioma cells
  CI range for the concentration pairings: 0.458-0.820

## CC(=O)O[C@@]12CO[C@@H]1C[C@H](O)[C@@]1(C)C(=O)[C@H](O)C3=C(C)[C@@H](OC(=O)[C@H](O)[C@@H](NC(=O)OC(C)(C)C)c4ccccc4)C[C@@](O)([C@@H](OC(=O)c4ccccc4)[C@H]21)C3(C)C [Docetaxel]
[17]
  synergy with MBZ (Yes/No): No
[5]
  synergy with MBZ (Yes/No): No
[7]
  CI range for the concentration pairings: 0.399-0.867

## O=c1[nH]cc(F)c(=O)[nH]1 [5-FU, 5-Fluorouracil]
[18]
  CI range for the concentration pairings: 0.285-0.860
[19]
  CI range for the concentration pairings: 0.429-0.827
[20]
  CI range for the concentration pairings: 0.528-0.748
[21]
  CI range for the concentration pairings: 0.370-0.855
[6]
  CI range for the concentration pairings: 0.170-0.877
[22]
  CI range for the concentration pairings: 0.073-0.558
[11]
  CI range for the concentration pairings: 0.252-0.878
[14]
  CI range for the concentration pairings: 0.448-0.792
[15]
  CI range for the concentration pairings: 0.458-0.850

## Cc1ccc(NC(=O)c2ccc(CN3CCN(C)CC3)cc2)cc1Nc1nccc(-c2cccnc2)n1 [Imatinib]
[23]
  CI range for the concentration pairings: 0.627-0.875

## CCN1CCN(Cc2ccc(Nc3ncc(F)c(-c4cc(F)c5nc(C)n(C(C)C)c5c4)n3)nc2)CC1 [Abemaciclib]
[23]
  CI range for the concentration pairings: 0.390-0.701

## COc1cc([C@@H]2c3cc4c(cc3[C@@H](O[C@@H]3O[C@@H]5CO[C@@H](C)O[C@H]5[C@H](O)[C@H]3O)[C@H]3COC(=O)[C@H]23)OCO4)cc(OC)c1O [Etoposide]
[18]
  CI range for the concentration pairings: 0.607-0.890
[20]
  CI range for the concentration pairings: 0.293-0.707
[4]
  CI range for the concentration pairings: 0.535-0.899
[8]
  CI range for the concentration pairings: 0.647-0.891
[9]
  CI range for the concentration pairings: 0.551-0.832
[10]
  CI range for the concentration pairings: 0.618-0.710
[15]
  CI range for the concentration pairings: 0.253-0.893

## N.N.O=C([O-])C1(C(=O)[O-])CCC1.[Pt+2] [Carboplatin]
[19]
  CI range for the concentration pairings: 0.409-0.783
[2]
  synergy with MBZ (Yes/No): No
[5]
  CI range for the concentration pairings: 0.506-0.845
[21]
  CI range for the concentration pairings: 0.063-0.603
[7]
  CI range for the concentration pairings: 0.553-0.860
[22]
  synergy with MBZ (Yes/No): No
[24]
  CI range for the concentration pairings: 0.542-0.636
[8]
  CI range for the concentration pairings: 0.587-0.876
[12]
  CI range for the concentration pairings: 0.433-0.891
LO68 mesothelioma cells
  CI range for the concentration pairings: 0.574-0.865
JU77 mesothelioma cells
  CI range for the concentration pairings: 0.539-0.841

## O=C1[O][Pt]2([NH][C@@H]3CCCC[C@H]3[NH]2)[O]C1=O [Oxaliplatin]
[18]
  CI range for the concentration pairings: 0.493-0.728
[19]
  CI range for the concentration pairings: 0.571-0.883
[21]
  CI range for the concentration pairings: 0.355-0.875
[25]
  CI range for the concentration pairings: 0.036-0.834
[22]
  CI range for the concentration pairings: 0.587-0.897
[24]
  CI range for the concentration pairings: 0.395-0.597
[11]
  CI range for the concentration pairings: 0.060-0.631
[14]
  CI range for the concentration pairings: 0.455-0.758

## CN(C)/N=N/c1[nH]cnc1C(N)=O [Dacarbazine]
[26]
  CI range for the concentration pairings: 0.246-0.785

## CC(=O)O[C@H]1C(=O)[C@@]2(C)[C@H]([C@H](OC(=O)c3ccccc3)[C@]3(O)C[C@H](OC(=O)[C@H](O)[C@@H](NC(=O)c4ccccc4)c4ccccc4)C(C)=C1C3(C)C)[C@]1(OC(C)=O)CO[C@@H]1C[C@@H]2O [Paclitaxel]
[19]
  CI range for the concentration pairings: 0.425-0.883
[5]
  CI range for the concentration pairings: 0.367-0.839
[21]
  CI range for the concentration pairings: 0.430-0.864
[7]
  CI range for the concentration pairings: 0.318-0.889
[22]
  CI range for the concentration pairings: 0.193-0.508
[14]
  CI range for the concentration pairings: 0.341-0.845

## O=P1(N(CCCl)CCCl)NCCCO1 (stereo not drawn) [Cyclophosphamide]
[8]
  CI range for the concentration pairings: 0.569-0.860
[26]
  CI range for the concentration pairings: 0.388-0.879
[15]
  CI range for the concentration pairings: 0.226-0.784

## Nc1ccn([C@@H]2O[C@H](CO)[C@@H](O)C2(F)F)c(=O)n1 [Gemcitabine]
[1]
  CI range for the concentration pairings: 0.385-0.802
[16]
  CI range for the concentration pairings: 0.410-0.893
[17]
  CI range for the concentration pairings: 0.418-0.861
[2]
  CI range for the concentration pairings: 0.086-0.796
[6]
  CI range for the concentration pairings: 0.149-0.874
[25]
  CI range for the concentration pairings: 0.012-0.796
[27]
  synergy with MBZ (Yes/No): No
[11]
  CI range for the concentration pairings: 0.394-0.855
[13]
  synergy with MBZ (Yes/No): No
LO68 mesothelioma cells
  CI range for the concentration pairings: 0.525-0.845
[14]
  CI range for the concentration pairings: 0.502-0.770
JU77 mesothelioma cells
  CI range for the concentration pairings: 0.362-0.712

## CCc1c2c(nc3ccc(OC(=O)N4CCC(N5CCCCC5)CC4)cc13)-c1cc3c(c(=O)n1C2)COC(=O)[C@]3(O)CC [Irinotecan]
[18]
  CI range for the concentration pairings: 0.545-0.793
[19]
  CI range for the concentration pairings: 0.635-0.871
[20]
  CI range for the concentration pairings: 0.502-0.819
[21]
  CI range for the concentration pairings: 0.439-0.871
[6]
  synergy with MBZ (Yes/No): No
[22]
  synergy with MBZ (Yes/No): No
[24]
  CI range for the concentration pairings: 0.589-0.757
[14]
  CI range for the concentration pairings: 0.659-0.793

## CC[C@]1(O)C[C@H]2CN(CCc3c([nH]c4ccccc34)[C@@](C(=O)OC)(c3cc4c(cc3OC)N(C=O)[C@H]3[C@@](O)(C(=O)OC)[C@H](OC(C)=O)[C@]5(CC)C=CCN6CC[C@]43[C@@H]65)C2)C1 [Vincristine]
[26]
  CI range for the concentration pairings: 0.274-0.871
